Test results taken from patent US6677383B1, “Hydroxylation activated prodrugs” (De Montfort University, priority 1998, dated 2004).
Like-named read-outs stand apart in the source and are kept apart here.

Experiments:
[1] = test system: V79mzhu1B1 cells (express the enzyme CYP1B1)
Procedure: (§1) The cytotoxicity assay method used was a modification of the MTT cytotoxicity assay (Carmichael et al., 1987, Cancer Research, 47: 936). […] Compound stocks were made up as 100 mM in DMSO and stored for no more than one month at 4° C. The plates were then incubated at 37° C., 5% CO2, 100% humidity for a further 48 hours followed by washing by immersion 3 times in Dulbecco's PBS (phosphate buffered saline) A. 50 μl of RPMI 1640 w/o phenol red (Roswell Park Memorial Institute Medium 1640, Life Science International) with 2 mg/ml MTT was then added for four hours as above, excess MTT removed by aspiration and 125 μl of DMSO added on a vortex for 30 minutes to solubilize the product. The absorbance at A450 was recorded and the results expressed as a % survival of carrier only treated controls.

[2] = test system: V79mz cells (parental cell line which does not express CYP1B1)
Procedure: as §1

[3] = biological target: T1, CYP1B1 (microsomal preparation of human tumour tissue expressing the CYP1B1 enzyme) (Homo sapiens, UniProt Q16678); conditions: pH 7.6
T1 sequence (Q16678 1-543): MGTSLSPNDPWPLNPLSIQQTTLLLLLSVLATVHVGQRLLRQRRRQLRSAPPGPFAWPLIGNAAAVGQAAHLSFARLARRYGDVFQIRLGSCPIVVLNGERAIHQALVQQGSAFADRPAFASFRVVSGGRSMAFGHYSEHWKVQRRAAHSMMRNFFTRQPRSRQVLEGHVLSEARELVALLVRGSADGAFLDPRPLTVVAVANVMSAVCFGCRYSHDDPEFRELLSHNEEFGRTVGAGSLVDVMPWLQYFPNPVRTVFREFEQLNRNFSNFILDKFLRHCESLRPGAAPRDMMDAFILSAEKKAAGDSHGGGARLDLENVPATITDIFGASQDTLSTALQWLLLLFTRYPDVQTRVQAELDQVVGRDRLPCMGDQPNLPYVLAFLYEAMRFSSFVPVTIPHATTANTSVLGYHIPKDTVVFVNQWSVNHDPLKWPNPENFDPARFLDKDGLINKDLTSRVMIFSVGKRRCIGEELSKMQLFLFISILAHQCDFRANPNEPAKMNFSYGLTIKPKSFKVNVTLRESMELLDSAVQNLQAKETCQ
Procedure: (§2) A microsomal preparation of human tumour tissue expressing the CYP1B1 enzyme was prepared essentially as described by the method of Barrie et al. (1989. J. Steroid Biochem., 6: 1191-1195)
(§3) Experiment were carried out at 37° C., under yellow light.
(§4) An array of 1.5 ml centrifuge tubes were set up in a water bath shaker under aerobic conditions. To each tube was then added 500 μl of pH 7.6 buffer (0.1 M NaK2PO4), followed by NADPH (5 μl of a 25 mM stock solution). The microsomal preparation (80 μl) was then added and the tubes preincubated for 5 minutes at 37° C. The prodrug substrate was then added (10 μl of a 5 mM stock solution) and incubated for 1 hour at 37° C. After 1 hour the tubes were transferred to an ice/water cooling bath (0° C.). The tubes were then centrifuged at 1 5,000 rpm for 30 minutes. A sample of the supernatant (100 μl) was then taken and analysed by HPLC.
(§5) HPLC conditions: Spherisorb C18 (25 cm×4.6 mm id), used without guard column. Flow rate 1 ml/min. Eluent 75% 0.1 M KH2PO4 and 25% acetonitrile.

[4] = biological target: T1, CYP1B1 (microsomal preparation of human tumour tissue expressing the CYP1B1 enzyme); test: Metabolism studies with microsomal preparation of human tumour tissue, HPLC detection of the hydroxylated metabolite; conditions: tumour microsomes, NADPH, pH 7.6, 1 hour at 37° C., confirmed by synthesis of authentic metabolite
Procedure: as §2, §3, §4, §5

[5] = MTT cytotoxicity assay, parental cell line not expressing CYP1B1; conditions: Chinese hamster, V79mz cells (parental line that does not express CYP1B1)
Procedure: as §1

[6] = test system: V79mzhu1B1 cells (express the enzyme CYP1B1); test: MTT cytotoxicity assay, cell line expressing CYP1B1; conditions: V79 IC50 versus V791B1 IC50
Procedure: as §1

[7] = as above; conditions: Chinese hamster, V79mzhu1B1 cells (V79 cells that express CYP1B1)
Procedure: as §1

SMILES	aromatic hydroxylation to hydroxylated metabolite [4]	IC50 at 48 h [5] [nM]	IC50 at 48 h [7] [nM]	further results
COc1ccc(/C=C/c2ccc(OC)cc2)cc1 [Compound IIIb, (E)-(4,4′)-Dimethoxystilbene]				IC50 [1]: 8300 nM; IC50 [2]: 58200 nM
Oc1ccc(/C=C/c2cc(O)cc(O)c2)cc1 [Compound IIIc, (E)-(3,4′,5)-trihydroxystilbene]				aromatic hydroxylation to hydroxylated metabolite [3]: converted to the hydroxylated metabolite (E)-(3,3′,4,5′)-tetrahydroxystilbene
COc1ccc(/C=C/C(=O)c2cc(OC)c(OC)c(OC)c2)cc1 [Compound VII, (E)-1-(4-Methoxyphenyl)-3-(3,4,5-trimethoxyphenyl)prop-1-en-3-one]	converted to the hydroxylated metabolite (E)-1-(3-Hydroxy4-methoxyphenyl)-3-(3,4,5-trimethoxyphenyl)prop-1-en-3-one	1000	5	fold more cytotoxic to the cell line expressing CYP1B1 than to the parental cell line not expressing this enzyme [6]: around 200 fold
COc1cc(C(=O)/C=C/c2ccc(O)cc2)cc(OC)c1OC [Compound VIII, (E)-1-(4-Hydroxyphenyl)-3-(3,4,5-trimethoxyphenyl)prop-1-en-3-one]		1810	1710	
COc1ccc(/C=C(\C#N)c2cccnc2)cc1 [Compound IIa, (Z)-1-Cyano-1-(3-pyridyl)-2-(4-methoxyphenyl)ethene]	converted to the hydroxylated metabolite (Z)-1-Cyano-1-(3-pyridyl)-2-(3-hydroxy-4-methoxyphenyl)ethene	1810	1630	
